Patent US5126258A (priority 1988, dated 1992)
“Also recorded” adds a separate entry of the source. Read-outs that look alike come from different tables or passages of the source. *1 amine or outer side, *2 acyl side, *3 side chain or, on linkers, in order; H or OH if unused. Where a SMILES comes first, the peptide text is derived from it. The star is where a group is joined. Glutaryl = O=C(CCCC(=O)[*:2])[*:1]; pNA = O=[N+]([O-])c1ccc(N*)cc1; Cbz = O=C(OCc1ccccc1)*

What was measured:
[1] = tested on: monoclonal receptor NPN 43C9; assay: Amide hydrolysis by monoclonal receptor NPN 43C9, kinetics and inhibition; format: biochemical, mouse; settings: for Km: printed figure = km × 10^6; for Vmax: figure = Vmax × 10^9; for kcat: printed figure = kcat × 10^4; for nature of inhibition / Ki: substrate Compound 28
Protocol: FIG. 6 is a graph showing a Lineweaver-Burk plot for amide hydrolysis of reactant ligand Compound 28 by monoclonal receptor NPN 43C9 present at 10 uM. Rates were determined as discussed hereinafter. The ordinate is in units of 1/initial velocity (1/v) in units of minutes/moles (M^-1 min) from zero through 10^7. The abscissa is in units of the reciprocal of the concentration of Compound 28 [1/(28)] in micromoles (uM^-1).
FIG. 7 is a graph showing plots of steady-state velocity (V×10^-9M^-1 min) as a function of total NPN 43C9 monoclonal receptor concentration (At ×10^-6 M) in the absence (I=O) and presence (I=44,=88 and =131) of different concentrations of reversible tight-binding inhibitor (Compound 24i). The indicia adjacent to each curve (I=O, I=44, I=88, and I=131) represent the total micromolar (uM) concentrations of that inhibitor. Each data set was obtained at a constant reactant ligand concentration (1600 uM). […] The data obtained were thereafter fit to an equation shown and discussed hereinafter.
FIG. 8 is a graph showing three further Lineweaver-Burk plots for the hydrolysis of Compound 28 by receptor NPN 43C9 present at 8 uM. Initial velocities were calculated as discussed hereinafter, whereas the ordinate and abscissa are as discussed for FIG. 6, albeit the values of the ordinate are from zero to 3×10^7 M^-1 min. In those plots, the uppermost plot ( ) was prepared from data obtained in the presence of 2000 uM Compound 29 as inhibitor, the middle plot ( ) was obtained in the presence of 1000 uM Compound 29 as inhibitor, and the lowest plot ( ) was obtained in the absence of inhibitor.
It was therefore stored at 4 degrees C in buffer containing 150 mM sodium chloride that was removed immediately prior to use by dialysis against 50 mM CHES, 80 uM NaCl at a pH value of 9.0, and at a temperature of 22 degrees C. This receptor was utilized at concentrations of 10 and 8 uM (as an average value determined from a BCA assay and O. D. 280 nm, using a molecular weight of 160,000 daltons for IgG).
Kinetic parameters for hydrolysis of reactant ligand Compound 28 were determined by measuring the initial linear absorbance change at 404 nm, release of p-nitroaniline. Monoclonal receptor concentrations utilized were 10 and 8 uM, as noted previously. Reactions were initiated by admixture of varying aliquots of a 50 or 100 mM stock solution of Compound 28 in DMF, to provide reactant ligand substrate concentrations of 100-1600 uM. Further studies were carried out using a mixed organic solvent containing dimethyl sulfoxide (DMSO) and acetonitrile (CH3 CN) to dissolve the ligand. In those studies, a final concentration of 5 percent (v/v) of organic solvent was utilized with DMSO comprising 0.2-2.4 volume percent of the final concentration and CH3 CN comprising the remainder of the organic solvent.
Transacylation reactions utilizing an amide reactant ligand as substrate have been studied with Compound 28 as the reactant ligand. In these studies, forty-four hybridomas were prepared that secreted forty-four monoclonal receptors that bound to a conjugate of the immunizing hapten and BSA as carrier protein. Of those forty-four receptors, two appeared to catalyze the hydrolysis reaction of Compound 28. One of those two receptors, NPN 43C9, was selected for further study, as is discussed below.
The initial rates of hydrolysis measured as a function of reactant ligand (Compound 28) concentration followed Michaelis-Menten kinetics.
*Parameters in the upper horizontal row were obtained in the presence of
DMF as a Compound 28solubilizing solvent, whereas parameters in the lower
horizontal row were detained in the presence of DMSO/CH3 CN as
Compound 28solubilizing solvent.
To establish the specificity of monoclonal receptor NPN 43C9, the rates of hydrolysis of potential reactant ligands modified in their acyl or aniline portions were studied. […]

[2] = tested on: monoclonal receptor P3 6D4; assay: Stoichiometric transacylation reaction of monoclonal receptor P3 6D4 with coumarin ester Compound 5 (fluorescence) and its inhibition/inactivation; format: biochemical, mouse
Protocol: A Perkin-Elmer LS-5 fluorescence spectrometer was operated at a fixed wavelength, using 355 nanometers (nm) for excitation and measuring the emission at 455 nm. A stock solution of the coumarin ester 5 was prepared in dioxane and was diluted to the desired concentrations in Tris-HCl (50 mM, pH 7) or sodium phosphate (50 mM, pH 4-9).
Reactions were run at 23 degrees C and were initiated by the addition of an aliquot of antibody solution (1 mg/ml) to substrate solutions to provide a final protein concentration of 100 nM. Final fluorescence values were determined by hydrolysis of the substrate with pig liver esterase. The observed reaction rate was corrected for spontaneous hydrolysis. Reaction kinetics were studied by measuring initial rates under pseudo-first order conditions. Active protein concentration was extrapolated from fluorescence values at the end of the reaction. The kinetic parameters were obtained by fitting the data to a hyperbolic curve and from double reciprocal plots. Inhibition constants were determined from the Lineweaver-Burk plot data with at least five inhibitor concentrations. All the data were studied by a least squares analysis.
Antibody preparations were inactivated without introducing fluorescent products by the addition of the activated ester (Compound 8) in dioxane to a solution of the IgG (5 mg/ml) in Tris-HCl (50 mM, pH 6.5) at a ratio of 5 moles of the ester (Compound 8) per mole IgG.
Protein modification was performed in an analogous manner, by the addition of a dioxane solution of the reagent at a known concentration to the antibody. The solution was incubated for 30 minutes before filtration through Sephadex G-25. The activity remaining was compared to control samples. Aliquots of IgG (5 mg/ml) inactivated with the ester (Compound 8) were diluted with four volumes of phosphate buffer (50 mM, pH 4-9, at intervals of 1 pH unit). Any pH change was recorded, and the sample was stored at 4 degrees C for 24 hours.
Initially, the ester was used at a concentration that was about four-fold greater than that of the protein, and the mixture was incubated at pH 7.2 for 10 minutes. Any change in fluorescence above background was noted.
The termination of the reaction is noted by the return of the rate of fluorescence increase to the background level.

[3] = DMF as Compound 28-solubilizing solvent
[4] = DMSO/CH3CN as Compound 28-solubilizing solvent

With O=C(O)CCCC(=O)Nc1ccc(CC(=O)Nc2ccc([N+](=O)[O-])cc2)cc1 [Compound 28] the “rate acceleration / rate enhancement relative to uncatalyzed reaction” value [1] was 10^5, the “substrate acceptance by NPN 43C9” value [1] was “substrate” and the kcat/kuncat [1, 3] was 1.5 × 10^5. The Km ([1]; DMF as Compound 28-solubilizing solvent, pH 9.0) was 370 µM, the Vmax [1, 3] was 8.3 nM/s and the kcat [1, 3] was 0.00083 s⁻¹. For the same compound, the kcat/kuncat [1, 4] was 2.5 × 10^5, the Vmax [1, 4] was 7 nM/s and the kcat [1, 4] was 0.00133 s⁻¹. For the same compound, the Km [1, 4] was 562 µM and the “available transition state binding energy ΔΔG” value ([1]; difference between binding of inhibitor (Ki) and Compound 28 (Km)) was -2.2 kcal/mol.
With NCCCC[C@H](N)C(=O)Nc1ccc([N+](=O)[O-])cc1 [L-lysine p-nitroanilide, reference compound] the “substrate acceptance by NPN 43C9” value [1] was “not reactant ligand substrates”.
In the case of O=C(O)CN(CCN(CC(=O)O)CC(=O)O)CC(=O)O [EDTA, reference compound], the “effect of additive on antibody-enhanced esterolysis of Compound 5” value [2] is reported as “failure of added EDTA to affect the reaction”.
N=C(N)NCCCC(NC(=O)c1ccccc1)C(=O)Nc1ccc([N+](=O)[O-])cc1 (racemic) [reference compound] was tested, and the “substrate acceptance by NPN 43C9” value [1] was “not reactant ligand substrates”.
O=C(Cc1ccc(NC(=O)C(F)(F)F)cc1)ON1C(=O)CCC1=O [Compound 6] was tested, and the inactivation of receptor [2] was “specifically combine with the antibodies to produce an inactive product”.
O=C(O)CCCC(=O)Nc1ccc(CC(=O)Oc2ccc([N+](=O)[O-])cc2)cc1 was tested, and the “substrate acceptance by NPN 43C9” value [1] was “catalytically hydrolyzed”.
In the case of N=C(N)NCCC[C@H](NC(=O)OCc1ccccc1)C(=O)Nc1ccc([N+](=O)[O-])cc1 [N-alpha-CBZ-L-arginine p-nitroanilide, reference compound], the “substrate acceptance by NPN 43C9” value [1] is reported as “not reactant ligand substrates”.
With O=C(O)Cc1ccc(NC(=O)C(F)(F)F)cc1 [carboxylate product of ester hydrolysis] the Ki ([2]; summary, kinetic parameters at low pH values, read-out: Ki (inhibition of antibody esterolysis)) was 7 µM.
For CC(=O)Nc1ccc(CC(=O)Oc2ccc3ccc(=O)oc3c2)cc1 [reference compound], the “stoichiometric antibody reaction (release of alcohol)” value [2] was “not detected”.
In the case of CC(C)C[C@H](N)C(=O)Nc1ccc([N+](=O)[O-])cc1 [L-leucine p-nitroanilide, reference compound], the “substrate acceptance by NPN 43C9” value [1] is reported as “not reactant ligand substrates”.
With CC(=O)N[C@@H](CC(N)=O)C(=O)Nc1ccc([N+](=O)[O-])cc1 [acetyl-L-asparagine p-nitroanilide, reference compound] the “substrate acceptance by NPN 43C9” value [1] was “not reactant ligand substrates”.
With O=C(Nc1ccc([N+](=O)[O-])cc1)[C@@H]1CCCN1 [L-proline p-nitroanilide, reference compound] the “substrate acceptance by NPN 43C9” value [1] was “not reactant ligand substrates”.
CC(=O)Nc1ccc(CP(=O)(O)Nc2ccc([N+](=O)[O-])cc2)cc1 [inhibitor] was tested, and the nature of inhibition [1] was “reversible”.
With zinc [reference compound] the “effect of additive on antibody-enhanced esterolysis of Compound 5” value ([2]; up to 100 micromolar added zinc and picolinic acid, EDTA concentration not given) was “No effect”.
CC(C)[C@H](N)C(=O)Nc1ccc([N+](=O)[O-])cc1 [L-valine p-nitroanilide, reference compound] was tested, and the “substrate acceptance by NPN 43C9” value [1] was “not reactant ligand substrates”.
O=C(O)CCCC(=O)Nc1ccc(CC(=O)Nc2ccccc2[N+](=O)[O-])cc1 was tested, and the “substrate acceptance by NPN 43C9” value [1] was “non-substrates”.
With O=C(O)CCCC(=O)Nc1ccc(CC(=O)Nc2cccc([N+](=O)[O-])c2)cc1 [Compound 29] the “substrate acceptance by NPN 43C9” value [1] was “lack of receptor-assisted hydrolysis”, the “substrate acceptance by NPN 43C9” value ([1]; listed as Compound 28 with m-nitroaniline for p-nitroaniline) was “non-substrates” and the nature of inhibition [1] was “inhibitor”.
With CC(C)C[C@H](NC(=O)[C@H](CCC(=O)O)NC(=O)CCCC(=O)O)C(=O)Nc1ccc([N+](=O)[O-])cc1 [glutaryl-glutamyl-L-leucine p-nitroanilide, reference compound] (Glutaryl-Glu-Leu-pNA) the “substrate acceptance by NPN 43C9” value [1] was “not reactant ligand substrates”.
With O=C(N[C@@H](Cc1ccc(O)cc1)C(=O)Nc1ccc([N+](=O)[O-])cc1)c1ccccc1 [N-benzoyl-L-tryrosine p-nitroanilide, reference compound] the “substrate acceptance by NPN 43C9” value [1] was “not reactant ligand substrates”.
In the case of CC(=O)Nc1ccc(CP(=O)(O)Nc2ccc([N+](=O)[O-])cc2)cc1 [Compound 24i], the “calculated maximum number of enzyme binding sites” value ([1]; detected with inhibitor Compound 24i) is reported as 5.1±0.9, the Ki ([1]; infinite reactant ligand concentration, inhibitor binding to receptor in a complex, read-out: inhibition constant kii) is reported as 2.5 µM and the Ki ([1]; low substrate concentration, inhibitor binding to free receptor, read-out: inhibition constant kis) is reported as 10 µM. The nature of inhibition [1] was “Tight binding inhibition; also recorded: mixed inhibitor”.
With O=C(O)CCCC(=O)N[C@@H](Cc1ccccc1)C(=O)Nc1ccc([N+](=O)[O-])cc1 [N-glutaryl-L-phenylalanine p-nitroanilide, reference compound] the “substrate acceptance by NPN 43C9” value [1] was “not reactant ligand substrates”.
In the case of N[C@@H](CSCc1ccccc1)C(=O)Nc1ccc([N+](=O)[O-])cc1 [S-benzyl-L-cysteine p-nitroanilide, reference compound], the “substrate acceptance by NPN 43C9” value [1] is reported as “not reactant ligand substrates”.
CC(C)C[C@H](NC(=O)CNC(=O)CNC(=O)OCc1ccccc1)C(=O)Nc1ccc([N+](=O)[O-])cc1 [N-CBZ-glycyl-glycyl-L-leucine p-nitroanilide, reference compound] (Cbz-Gly-Gly-Leu-pNA) was tested, and the “substrate acceptance by NPN 43C9” value [1] was “not reactant ligand substrates”.
